Test results from patent publication US11408900B2, “Secreted P-glycoprotein is a non-invasive biomarker of chronic rhinosinusitis” (Massachusetts Eye and Ear Infirmary, priority 2016, dated 2022).

What was measured:
P-gp = P-gp (Homo sapiens, UniProt P08183); settings: cited from earlier work
[1] = test system: healthy patient derived epithelial cell cultures (HSNECCs); experiment: Quantitative fluorescent immunocytochemistry for membranous P-gp (CTCF) after recombinant P-gp exposure; format: cell-based, human; settings: 24 hours
Procedure: (§1) HSNECCs from 7 control patients and 6 CRS patients were grown as previously described^8. Briefly, mucosal samples were washed and digested in Pronase for 90 minutes at 37° C. Cell suspensions were separated from particulate matter by centrifugation and resuspended in bronchial epithelial growth media (BEGM). Cells were plated for 2 hours on standard tissue culture plates to remove contaminating fibroblasts. Cells were then expanded for 3-5 days on human collagen type IV-coated (Collagen from human placenta, Bornstein and Traub Type IV, Sigma Aldrich, St. Louis, Mo.) 75 cm^2 dishes (Corning Life Sciences, Corning, N.Y.). […]
Fluorescent staining intensity was quantified according to previously described techniques^9. Briefly, 20× fields were chosen and images were analyzed in Image J v1.49t. The cells and 3 background areas were circled in Image J using the free hand sections tool and the integrated density, area of selected cell, and mean fluorescence of the backgrounds were measured using the region of interest (ROI) manager. The corrected total cell fluorescence (CTCF) was calculated as the integrated density−(area of selected cell×mean fluorescence of background readings). […]

[2] = test system: healthy patient derived epithelial cell cultures (HSNECCs); experiment: Calcein AM P-glycoprotein activity assay after recombinant P-gp exposure; format: cell-based, human; settings: 24 hours, n=7
Procedure: as §1
A calcein AM assay was performed to determine whether the interpolated P-gp was functional following 24 hours of recombinant P-gp exposure as described above. […] After 15 minutes, each well was washed 3 times with cold phosphate buffered saline and the calcein fluorescence within each well was quantified using a spectrophotometer (Molecular Devices SpectraMax M5, Sunnyvale, Calif.) at an excitation and emission wavelength of 494 nm and 517 nm, respectively. A decrease in fluorescence was considered an indication of increased P-gp function as previously described^4.

HSNECCs = experiment: Epithelial cytokine secretion (IL-6, IL-8, TSLP) by ELISA after exosome exposure with or without Zosuquidar; format: cell-based, human; settings: 0.625 μM Zosuquidar, CRSwNP relative to control
Procedure: Control wells were those exposed to vehicle control alone. Following exposure, the media was collected from each well. Cytokine concentrations for TSLP (Thymic Stromal Derived Lymphopoietin), Interleukin (IL)-6, and IL-8 were determined by ELISA according to the manufactures guidelines (eBioscience, San Diego, Calif.). All secreted cytokine concentrations were normalized to total protein concentrations using the Micro BCA Protein Assay Kit (Pierce, Rockford, Ill.).

P-gp, sequence (P08183 whole entry): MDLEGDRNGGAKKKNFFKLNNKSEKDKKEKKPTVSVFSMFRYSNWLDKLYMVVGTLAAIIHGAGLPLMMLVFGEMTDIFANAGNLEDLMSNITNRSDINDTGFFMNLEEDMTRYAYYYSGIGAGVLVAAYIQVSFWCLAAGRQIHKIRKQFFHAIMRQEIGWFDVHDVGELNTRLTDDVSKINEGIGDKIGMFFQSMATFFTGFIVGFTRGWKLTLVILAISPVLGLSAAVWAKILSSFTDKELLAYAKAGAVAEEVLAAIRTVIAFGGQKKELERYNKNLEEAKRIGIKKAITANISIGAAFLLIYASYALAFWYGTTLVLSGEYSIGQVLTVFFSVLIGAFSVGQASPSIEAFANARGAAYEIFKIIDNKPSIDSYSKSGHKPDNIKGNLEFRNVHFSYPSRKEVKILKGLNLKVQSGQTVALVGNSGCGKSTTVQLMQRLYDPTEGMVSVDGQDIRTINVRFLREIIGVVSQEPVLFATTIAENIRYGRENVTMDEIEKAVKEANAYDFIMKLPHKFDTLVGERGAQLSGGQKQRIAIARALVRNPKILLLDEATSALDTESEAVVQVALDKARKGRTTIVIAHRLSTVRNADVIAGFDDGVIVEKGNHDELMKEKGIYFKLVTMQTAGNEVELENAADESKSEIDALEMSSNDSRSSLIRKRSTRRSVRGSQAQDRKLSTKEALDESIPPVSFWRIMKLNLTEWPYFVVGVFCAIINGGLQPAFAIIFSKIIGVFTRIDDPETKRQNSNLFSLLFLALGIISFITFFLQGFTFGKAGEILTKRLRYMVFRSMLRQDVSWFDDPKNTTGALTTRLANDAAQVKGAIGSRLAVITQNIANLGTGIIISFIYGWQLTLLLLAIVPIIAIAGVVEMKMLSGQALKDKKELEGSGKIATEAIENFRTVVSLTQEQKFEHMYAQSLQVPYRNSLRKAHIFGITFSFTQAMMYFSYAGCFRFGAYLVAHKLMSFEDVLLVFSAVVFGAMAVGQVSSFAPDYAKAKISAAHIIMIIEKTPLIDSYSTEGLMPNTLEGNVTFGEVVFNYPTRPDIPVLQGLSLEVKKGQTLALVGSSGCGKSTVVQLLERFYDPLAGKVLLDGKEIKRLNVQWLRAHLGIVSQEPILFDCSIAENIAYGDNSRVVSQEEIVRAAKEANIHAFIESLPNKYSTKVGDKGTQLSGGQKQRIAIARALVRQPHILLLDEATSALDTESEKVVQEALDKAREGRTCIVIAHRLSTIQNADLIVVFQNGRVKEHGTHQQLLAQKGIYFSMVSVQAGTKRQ

## COc1cc2c(cc1OC)CN(CCc1ccc(NC(=O)c3cc(OC)c(OC)cc3NC(=O)c3cnc4ccccc4c3)cc1)CC2 [XR9576, N-[2-[[4-[2-(6,7-Dimethoxy-3,4-dihydro-1H-isoquinolin-2-yl)ethyl]phenyl]carbamoyl]-4,5-dimethoxyphenyl]quinoline-3-carboxamide]
P-gp
  potency relative to the first and second-generation inhibitors: about 10 fold

## recombinant human P-gp: recombinant human P-glycoprotein (USCN Life Sciences Inc.)
[1]; 2000 ng/mL recombinant human P-gp, n=7
  CTCF (corrected total cell fluorescence) of P-gp staining: 1.34+/−1.85
[1]; 100-2000 ng/mL exogenous recombinant human P-gp
  change in CTCF of P-gp staining: dose dependent increase
[2]; 100 ng/mL dose
  mean calcein fluorescence: 123.11+/−42.16
[2]; 2000 ng/mL dose
  mean calcein fluorescence: 82.03+/−43.69

## CCOC/C=C/c1ccc(-c2nc(-c3ccc(NC(C)C)cc3)c(-c3ccc(NC(C)C)cc3)[nH]2)cc1 [OC144093, 4-[2-[4-[(E)-3-ethoxyprop-1-enyl]phenyl]-4-[4-(propan-2-ylamino)phenyl]-1H-imidazol-5-yl]-N-propan-2-ylaniline]
P-gp
  potency relative to the first and second-generation inhibitors: about 10 fold

## Cl.Cl.Cl.O[C@@H](COc1cccc2ncccc12)CN1CCN([C@@H]2c3ccccc3[C@@H]3[C@H](c4ccccc42)C3(F)F)CC1 [Zosuquidar, (2R)-1-{4-[(1aR,6r,10bS)-1,1-Difluoro-1,1a,6,10b-tetrahydrodibenzo[a,e]cyclopropa[c]cyclohepten-6-yl]piperazin-1-yl}-3-(quinolin-5-yloxy)propan-2-ol,trihydrochloride]
HSNECCs
  effect on exosome induced increase in IL-6 secretion: abrogated
  effect on exosome induced increase in IL-8 secretion: abrogated
